Reference: patent publication US20100166859A1, “NOVEL NUTRACEUTICAL COMPOSITIONS AND USE THEREOF” (priority 2006, published 2010)
Where a SMILES comes first, the peptide text is derived from it. [ ]: non-standard residue; d: D form. ξ: configuration not given here. ξP = O=C(O)C1CCCN1

Legend:
[1] = biological target: glycine co-agonist site on the NMDA receptor (Rattus norvegicus, UniProt P35439); assay: [3H] MDL-105519 radioligand binding assay, glycine co-agonist site of the NMDA receptor; settings: displacement of 0.33 nM [3H] MDL-105519, rat cerebral cortex membranes
Protocol: Polypeptides or amino acid compositions of the instant invention were tested for the ability to bind to the glycine co-agonist site on the NMDA receptor using a previously validated [3H] MDL-105519 radioligand binding assay (see, for example Siegel B W, Sreekrishna K, Baron B M. Eur J Pharmacol. 1996 Oct. 3; 312(3):357-65). Upon binding, the peptide is displacing the parent radioligand from the NR1a binding site of the NMDA receptor. Binding inhibition of 50% or more is generally considered as significant.
Crude synaptic membranes used in the assay were prepared using rat cerebral cortex tissue (male Wistar rats) and extensively washed using the procedures described previously (Haring et al., 1991, J. Neurochem. 57:323-331). Briefly, tissue which has been stored at −80° C. was homogenized in ice-cold 5 mM Tris (pH 7.4) using a Polytron and then pelleted by centrifugation at 48,000 g for 20 minutes. The resulting supernatant was discarded, and the membranes washed three times in cold buffer. […]
Frozen pellets were thawed at room temperature and washed three times by resuspension in 50 mM Tris-acetate (pH 7.4) and centrifugation. […] Non-specific binding was determined using 10 μM unlabelled MDL-105519. […]
(§1) Assay results are presented as the % inhibition of specific binding. […] Semi-quantitative follow-up to estimate IC50 was done in duplicates at the indicated peptide concentrations.

[2] = biological target: AMPA receptor; assay: [3H] AMPA radioligand binding assay; settings: displacement of 5 nM [3H] AMPA, rat cerebral cortex membranes, 25° C., 90 min; semi-quantitative, duplicates
Protocol: Polypeptides or amino acid compositions of the instant invention were tested for the ability to bind to the AMPA receptor using a previously validated [3H] AMPA radioligand to binding assay (see, for example Olsen R W, Szamraj O, Houser C R Brain Res. 1987; 402(2):243-54.). Upon binding, the peptide is displacing the parent radioligand from the glutamate binding site of the AMPA receptor. Binding inhibition of 50% or more is generally considered as significant.
The membrane has been prepared as described in example 1.
Frozen pellets were thawed at room temperature and washed three times by resuspension in 50 mM Tris-acetate (pH 7.4) and centrifugation. Final pellets were suspended at concentrations of 2 to 3 mg/ml in 50 mM Tris-HCl (pH 7.4, 200 mM KSCN). Binding reactions were initiated by the addition of 200 μg of freshly prepared membranes to reaction mixtures (about 1 ml final volume) containing 5 nM [3H] AMPA at 25° C. in the presence of a range of peptide concentrations (0.5 μM, 1 μM, 10 μM, 100 μM and 200 μM). Incubation time was 90 min. Non-specific binding was determined using 1000 μM unlabelled L-Glutamic acid. […]
as §1

[3] = tested on: AMPA receptor; assay: Whole cell patch-clamp on CA1 pyramidal cells in brain slices, synaptic AMPA responses; type: cell-based, C57BL/6 mice
Protocol: Whole cell patch-clamp experiments were performed in parasagital brain slices on CAI pyramidal cells. The animals used for this study were C57BL/6 mice. After decapitation of the mice brains were quickly removed and placed in aerated (95% O2, 5% CO2) artificial cerebrospinal fluid (ASCF) solution at 4° C. The ACSF solution was composed of (mM): 124 NaCl, 2.5 KCl, 1.3 MgCl2, 26 NaHCO3, 1.25 NaH2PO4, 2.5 CaCl2 […] Synaptic AMPA responses were evoked every 10 seconds with a bipolar platinum electrode and recorded in the voltage clamp configuration with 4-5 MΩ patch pipette at a holding potential of −60 mV. Baseline recordings were performed with 100 μM picrotoxin in the ACSF. After establishing a stable synaptic AMPA response the tripeptide EPP (140 μM) was added to the bath, continuing the recording for an additional 20 to 30 minutes. At the end of every experiment NBQX (20 μM) was bath applied to block the AMPA response. The residual trace was subtracted from the previous recordings to show only the AMPA current. […]
Parameters measured to estimate the action of EPP were the holding current, amplitude, and initial slope of the AMPA responses. Additionally the amplitude ratio and initial slope ratio of the two AMPA responses from the paired pulse experiments was determined.

NCC(=O)NCC(=O)N1CCCC1C(=O)O (stereo not drawn) [GGP] (H-Gly-Gly-[ξP]-OH)
IC50 ([1]; 4° C., 30 min, semi-quantitative, duplicates): 11.3 µM

NC(CCC(=O)O)C(=O)N1CCCC1C(=O)N1CCCC1C(=O)O (stereo not drawn) [EPP] (H-Glu-Pro-Pro-OH; configuration not given here)
IC50 [2]: 14 µM
amplitude of the first synaptic AMPA response ([3]; 140 μM EPP in bath, baseline −83.9±14.1 pA, p<0.05, holding potential −60 mV): −130.6±22.6 pA
change in slope of the AMPA response ([3]; 140 μM EPP versus baseline, p=0.06): just failed to reach significance

O=C(O)/C(=C/c1c(C(=O)O)[nH]c2cc(Cl)cc(Cl)c12)c1ccccc1 [MDL-105519, reference compound]
IC50 ([1]; reference compound): 0.0096 µM
